{"source": "patent US20220002671A1", "about": "“T Cells with Improved Mitochondrial Function” (Abraham J and Phyllis Katz Cord Blood Foundation, priority 2018, published 2022)", "key": {"[1]": {"tested_on": "mitochondrial transfer from BM-MSC to UCB iTregs", "assay": "Mitochondrial transfer from mt-GFP lentivirus transduced MSC into iTregs, flow cytometry", "assay_type": "cell-based, human"}, "TNT formation": {"tested_on": "TNT formation", "settings": "Sáenz-de-Santa-María et al., Oncotarget, 2017; cited from earlier work"}, "[2]": {"tested_on": "mitochondrial transfer from BM-MSC to UCB iTregs", "assay": "Mitochondrial transfer from BM-MSC into UCB iTregs, MitoTracker Red FM by confocal microscopy", "assay_type": "cell-based, human"}, "[3]": {"tested_on": "mitochondrial transfer from hBM-MSC to iTreg", "assay": "Mitochondrial transfer from BM-MSC into iTregs, MitoTracker green by flow cytometry", "assay_type": "cell-based, human", "settings": "Cytochalasin B 350 nM treated BM-MSC, 24 h, n=6; Mock 2208±122.1"}, "[4]": {"tested_on": "BACH2, SENP3, Foxp3 in iTreg", "assay": "iTreg Foxp3, BACH2 and SENP3 protein expression", "assay_type": "cell-based, human", "settings": "after cytochalasin B treatment"}}, "data": [{"compound": "Nc1ncnc2c1ncn2[C@@H]1O[C@H](COP(=O)(O)CP(=O)(O)O)[C@@H](O)[C@H]1O", "note": "[Adenosine 5′-(α,(β-methylene)diphosphate, Adenosine 5′-(α,β-methylene)diphosphate]", "values": [{"measurement": "mitochondrial transfer from BM-MSC to UCB iTregs (mt-GFP+ iTregs)", "setting": "[1]", "result": "significantly blocks mitochondrial transfer"}]}, {"compound": "C=C1[C@@H](C)[C@H]2[C@H](Cc3ccccc3)NC(=O)[C@]23[C@H](OC(C)=O)/C=C/[C@@](C)(O)C(=O)[C@@H](C)C/C=C/[C@H]3[C@@H]1O", "note": "[Cytocalasin D, Cytochalasin D]", "values": [{"measurement": "TNT formation", "setting": "TNT formation", "result": "significant reduction"}]}, {"compound": "CC(=O)N[C@@H](CS)C(=O)O", "note": "[N-acetylcysteine]", "values": [{"measurement": "mitochondria uptake by Treg (confocal)", "setting": "[2]; 200 uM added to BM-MSC+iTreg culture, 24-36 h", "result": "minimally reduced"}]}, {"compound": "C=C(C)[C@H]1Cc2c(ccc3c2O[C@@H]2COc4cc(OC)c(OC)cc4[C@@H]2C3=O)O1", "note": "[rotenone]", "values": [{"measurement": "transfer of mitochondria into iTregs from rotenone treated MSC", "setting": "[1]; rotenone treated mt-GFP MSC platform, 72 hrs", "result": "do not transfer"}]}, {"compound": "Cytochalasin B", "values": [{"measurement": "mitochondrial transfer from MSC to UCB iTregs (MitoTracker+ iTregs, confocal)", "setting": "[2]; 350 nM, 24 h", "result": "significantly blocks mitochondrial transfer"}, {"measurement": "mitochondrial transfer from hBM-MSC to iTreg (MitoTracker MFI)", "setting": "[3]", "result": "923.8±89", "unit": "MFI"}, {"measurement": "iTreg BACH2 protein expression", "setting": "[4]", "result": "dramatically decreased"}, {"measurement": "iTreg SENP3 protein expression", "setting": "[4]", "result": "no significant effect"}]}]}
